# Target: T1, human OX2 receptor (Homo sapiens, UniProt O43614)
# T1 construct: expressed in transfected cells
# T1 sequence (O43614 1-444): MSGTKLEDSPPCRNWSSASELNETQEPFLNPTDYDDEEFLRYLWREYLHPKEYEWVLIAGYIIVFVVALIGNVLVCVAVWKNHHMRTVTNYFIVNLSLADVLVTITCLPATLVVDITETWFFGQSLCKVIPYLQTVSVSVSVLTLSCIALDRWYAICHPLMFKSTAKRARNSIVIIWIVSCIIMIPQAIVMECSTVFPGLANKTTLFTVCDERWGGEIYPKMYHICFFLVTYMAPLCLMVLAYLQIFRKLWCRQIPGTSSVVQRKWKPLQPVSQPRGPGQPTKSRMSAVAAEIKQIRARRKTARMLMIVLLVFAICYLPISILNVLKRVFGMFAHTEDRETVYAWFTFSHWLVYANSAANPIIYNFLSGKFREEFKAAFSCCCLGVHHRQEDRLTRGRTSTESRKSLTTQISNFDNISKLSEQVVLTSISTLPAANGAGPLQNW
# Assay: Measurement of orexin type 2 receptor agonist activity (calcium fluorescence, Fluo-4 AM, FDSS)
# Assay type: cell-based
# Settings: compound at 3 μM; CHO cells forcibly expressing human OX2 receptor; DMSO = 0%, 10 nM orexin A (human) = 100%
# Protocol: In order to obtain cell clones that stably express human orexin type 2 receptor, human orexin type 2 (residues 1-444, NCBI Reference Sequence: AK314279) was constructed in a pcDNA3.1 (+) vector (Invitrogen) to express in mammalian cells. This plasmid DNA was transfected into CHO-K1 cells by electroporation, and stable clones were obtained by limiting dilution using resistance to G418 as a selection marker.
# CHO cells in which human OX2 receptor was forcibly expressed were seeded at 10,000 cells/well into a 384-well black transparent bottom plate (BD falcon), and were incubated at 37° C., 5% CO2 for 1 day after incubation at room temperature for 30 minutes. After removing the cell plate medium, assay buffer containing calcium indicator A (HBSS (Thermo Fisher Scientific), 20 mM HEPES (Thermo Fisher Scientific), 0.1% BSA (Sigma-Aldrich), 2.5 μg/mL Fluo-4 AM (Dojin Kagaku), 0.08% Pluronic F127 (Dojin Kagaku), 1.25 mM probenecid (Dojin Kagaku)) was added at 30 μL/well. After incubation in a 5% CO2 incubator at 37° C. for 30 minutes, it was incubated at room temperature for another 30 minutes. Add 10 μL/well of the test compound diluted with assay buffer B (HBSS, 20 mM HEPES, 0.1% BSA), and use FDSS uCELL (Hamamatsu Photonics) to measure the fluorescence value every 1 second for 1 minute, and then every 2 seconds for […]. It was measured for 1 minute and 40 seconds. The amount of fluorescence value when DMSO is added instead of the test compound is defined as 0%, and the amount of fluorescence value when orexin A (human) (Peptide Institute) with a final concentration of 10 nM is added is defined as 100%. The activity (%) of the test compound was calculated.
row,"OX2R agonist activity (3 μM, %)",SMILES
1,53%,"CS(=O)(=O)NC1CCN(C2=NOC(c3ccccc3-c3c(F)cccc3F)C2)CC1 (stereo not shown) [Example 7, N-{1-[5-(2′,6′-difluoro[1,1′-biphenyl]-2-yl)-4,5-dihydro-1,2-oxazol-3-yl]piperidin-4-yl}methanesulfonamide]"
2,104%,"CCS(=O)(=O)N[C@H]1CCN(C2=NOC(c3ccc(C)cc3-c3c(F)cccc3F)C2)C1 (stereo partly drawn) [Example 8, N-{(3S)-1-[5-(2′,6′-difluoro-5-methyl[1,1′-biphenyl]-2-yl)-4,5-dihydro-1,2-oxazol-3-yl]pyrrolidin-3-yl}ethanesulfonamide]"
3,13%,"CCS(=O)(=O)N[C@H]1CCN(C2=NOC(c3cc(C(F)(F)F)nn3-c3c(F)cccc3F)C2)C1 (stereo partly drawn) [Example 9, N-[(3S)-1-{5-[1-(2,6-difluorophenyl)-3-(trifluoromethyl)-1H-pyrazol-5-yl]-4,5-dihydro-1,2-oxazol-3-yl}pyrrolidin-3-yl]ethanesulfonamide]"
4,102%,"Cc1cnc(C2(C)CC(N3C[C@@H](NS(C)(=O)=O)C(F)(F)C3)=NO2)c(-c2c(F)cc(F)cc2F)c1 (stereo partly drawn) [Example 10, N-[(3R)-4,4-difluoro-1-{5-methyl-5-[5-methyl-3-(2,4,6-trifluorophenyl)pyridin-2-yl]-4,5-dihydro-1,2-oxazol-3-yl}pyrrolidin-3-yl]methanesulfonamide]"
5,71%,"Cc1cn(-c2c(F)cccc2F)c(C2(C)CC(N3C[C@@H](NS(C)(=O)=O)C(F)(F)C3)=NO2)n1 (stereo partly drawn) [Example 12, N-[(3R)-1-{5-[1-(2,6-difluorophenyl)-4-methyl-1H-imidazol-2-yl]-5-methyl-4,5-dihydro-1,2-oxazol-3-yl}-4,4-difluoropyrrolidin-3-yl]methanesulfonamide]"
6,107%,"CCS(=O)(=O)N[C@@H]1CN(C2=NOC(c3ncc(C)cc3-c3c(F)cc(F)cc3F)(C(F)F)C2)CC1(F)F (stereo partly drawn) [Example 13, N-[(3R)-1-{5-(difluoromethyl)-5-[5-methyl-3-(2,4,6-trifluorophenyl)pyridin-2-yl]-4,5-dihydro-1,2-oxazol-3-yl}-4,4-difluoropyrrolidin-3-yl]ethanesulfonamide]"
7,106%,"Cc1cnc(C2(C(F)F)CC(N3C[C@@H](NS(C)(=O)=O)C(F)(F)C3)=NO2)c(-c2c(F)cc(F)cc2F)c1 (stereo partly drawn) [Example 14, N-[(3R)-1-{5-(difluoromethyl)-5-[5-methyl-3-(2,4,6-trifluorophenyl)pyridin-2-yl]-4,5-dihydro-1,2-oxazol-3-yl}-4,4-difluoropyrrolidin-3-yl]methanesulfonamide]"
8,92%,"CS(=O)(=O)N[C@@H]1CN(C2=NOC(CO)(c3ncc(F)cc3-c3c(F)cc(F)cc3F)C2)CC1(F)F (stereo partly drawn) [Example 15, N-[(3R)-4,4-difluoro-1-{5-[5-fluoro-3-(2,4,6-trifluorophenyl)pyridin-2-yl]-5-(hydroxymethyl)-4,5-dihydro-1,2-oxazol-3-yl}pyrrolidin-3-yl]methanesulfonamide]"
9,99%,"Cc1cnc(C2(CO)CC(N3C[C@@H](NS(C)(=O)=O)C(F)(F)C3)=NO2)c(-c2c(F)cc(F)cc2F)c1 (stereo partly drawn) [Example 16, N-[(3R)-4,4-difluoro-1-{5-(hydroxymethyl)-5-[5-methyl-3-(2,4,6-trifluorophenyl)pyridin-2-yl]-4,5-dihydro-1,2-oxazol-3-yl}pyrrolidin-3-yl]methanesulfonamide]"
10,80%,"Cc1cnc(C2CC(N3CC(F)(F)C3CNS(C)(=O)=O)=NO2)c(-c2c(F)cc(F)cc2F)c1 (stereo not shown) [Example 17, N-[(3,3-difluoro-1-{5-[5-methyl-3-(2,4,6-trifluorophenyl)pyridin-2-yl]-4,5-dihydro-1,2-oxazol-3-yl}azetidin-2-yl)methyl]methanesulfonamide]"
11,103%,"CS(=O)(=O)N[C@@H]1CN(C2=NOC(c3ncc(C4CC4)cc3-c3c(F)cc(F)cc3F)C2)CC1(F)F (stereo partly drawn) [Example 18, N-[(3R)-1-{5-[5-cyclopropyl-3-(2,4,6-trifluorophenyl)pyridin-2-yl]-4,5-dihydro-1,2-oxazol-3-yl}-4,4-difluoropyrrolidin-3-yl]methanesulfonamide]"
12,92%,"Cc1cnc(C2CC([C@@H]3CC[C@H](NS(C)(=O)=O)C3)=NO2)c(-c2c(F)cc(F)cc2F)c1 (stereo partly drawn) [Example 19, N-[(1S,3R)-3-{5-[5-methyl-3-(2,4,6-trifluorophenyl)pyridin-2-yl]-4,5-dihydro-1,2-oxazol-3-yl}cyclopentyl]methanesulfonamide]"
13,65%,"Cc1cnc(C2CC(O[C@H]3C[C@@H](NS(C)(=O)=O)C3)=NO2)c(-c2c(F)cccc2F)c1 (stereo partly shown) [Example 20, N-[(1s,3s)-3-({5-[3-(2,6-difluorophenyl)-5-methylpyridin-2-yl]-4,5-dihydro-1,2-oxazol-3-yl}oxy)cyclobutyl]methanesulfonamide]"
14,100%,"Cc1cnc(C2CC(N3C[C@@H](NS(C)(=O)=O)C(F)(F)C3)=NO2)c(-c2c(F)cccc2F)c1 (stereo partly drawn) [Example 21, N-[(3R)-1-{5-[3-(2,6-difluorophenyl)-5-methylpyridin-2-yl]-4,5-dihydro-1,2-oxazol-3-yl}-4,4-difluoropyrrolidin-3-yl]methanesulfonamide]"
15,102%,"CCS(=O)(=O)N[C@@H]1CN(C2=NO[C@H](c3ncc(C)cc3-c3c(F)cccc3F)C2)CC1(F)F [Example 22, N-[(3R)-1-{(5S)-5-[3-(2,6-difluorophenyl)-5-methylpyridin-2-yl]-4,5-dihydro-1,2-oxazol-3-yl}-4,4-difluoropyrrolidin-3-yl]ethanesulfonamide]"
16,42%,"Cc1cnc(C2CC(C3CC(NS(C)(=O)=O)C3)=NO2)c(-c2c(F)cc(F)cc2F)c1 (stereo not shown) [Example 23, N-[(1s,3s)-3-{5-[5-methyl-3-(2,4,6-trifluorophenyl)pyridin-2-yl]-4,5-dihydro-1,2-oxazol-3-yl}cyclobutyl]methanesulfonamide]"
17,20%,"Cc1cnc(C2CC([C@H]3CC[C@@H](NS(C)(=O)=O)CC3)=NO2)c(-c2c(F)cc(F)cc2F)c1 (stereo partly shown) [Example 24, N-[(1s,4s)-4-{5-[5-methyl-3-(2,4,6-trifluorophenyl)pyridin-2-yl]-4,5-dihydro-1,2-oxazol-3-yl}cyclohexyl]methanesulfonamide]"
18,88%,"Cc1cnc(C2CC([C@H]3CC[C@H](NS(C)(=O)=O)C3)=NO2)c(-c2c(F)cc(F)cc2F)c1 (stereo partly drawn) [Example 25, N-[(1S,3S)-3-{5-[5-methyl-3-(2,4,6-trifluorophenyl)pyridin-2-yl]-4,5-dihydro-1,2-oxazol-3-yl}cyclopentyl]methanesulfonamide]"
19,42%,"CCS(=O)(=O)NC[C@@H]1CCCN1C1=NOC(c2ncc(C)cc2-c2c(F)cccc2F)C1 (stereo partly drawn) [Example 26, N-{[(2S)-1-{5-[3-(2,6-difluorophenyl)-5-methylpyridin-2-yl]-4,5-dihydro-1,2-oxazol-3-yl}pyrrolidin-2-yl]methyl}ethanesulfonamide]"
20,77%,"Cc1cnc(C2CC(N(C)[C@H]3C[C@@H](NS(C)(=O)=O)C3)=NO2)c(-c2c(F)cccc2F)c1 (stereo partly shown) [Example 27, N-{(1s,3s)-3-[{5-[3-(2,6-difluorophenyl)-5-methylpyridin-2-yl]-4,5-dihydro-1,2-oxazol-3-yl}(methyl)amino]cyclobutyl}methanesulfonamide]"
21,93%,"Cc1cnc(C2CC(N3CC[C@@H](NS(C)(=O)=O)C(F)(F)CC3)=NO2)c(-c2c(F)cccc2F)c1 (stereo partly drawn) [Example 28, N-[(4R)-1-{5-[3-(2,6-difluorophenyl)-5-methylpyridin-2-yl]-4,5-dihydro-1,2-oxazol-3-yl}-5,5-difluoroazepan-4-yl]methanesulfonamide]"
22,96%,"Cc1cnc([C@@H]2CC(N3CC[C@H](NS(C)(=O)=O)C3)=NO2)c(-c2c(F)cccc2F)c1 [Example 29, N-[(3S)-1-{(5S)-5-[3-(2,6-difluorophenyl)-5-methylpyridin-2-yl]-4,5-dihydro-1,2-oxazol-3-yl}pyrrolidin-3-yl]methanesulfonamide]"

# From patent US20240217957A1, “HETEROCYCLIC COMPOUND AND USE THEREOF” (TAKEDA PHARMACEUTICAL COMPANY LIMITED, priority 2022, published 2024)
